Assay results as given in publication PMC3485097, “Branching of the p-nitrophenol (PNP) degradation pathway in burkholderia sp. Strain SJ98: Evidences from genetic characterization of PNP gene cluster” (AMB Express, 2012).

Assays:
[1] = test system: T1, reconstituted HqD (PnpE1_2-PnpE2_2 heterotetrameric complex); assay: spectrophotometric, 4-hydroxymuconic semialdehyde formation at […] nm; type: biochemical, Burkholderia sp. SJ98; conditions: pH 7.0, 25°C; Fe(II) required (100 μM FeSO4 in the standard assay)
T1 construct: gene pnpE1; N-terminal 6xHis on both subunits (pDEST17), E. coli BL21-AI; mixed, gel-filtered, ~120 kDa heterotetramer; with Hydroquinone dioxygenase small subunit

[2] = biological target: PnpE2, small subunit of hydroquinone dioxygenase (HqD) of Burkholderia sp. strain SJ98 (Burkholderia sp. strain SJ98); assay: SEC; purified PnpE1 and PnpE2 mixed in molar ratios from 3:1 to 1:3 in 50 mM phosphate buffer pH 7.0, incubated at 30°C for 1 h, then Sephacryl-200 gel filtration; molecular weight from the elution volume against standard proteins

Compound	Km [1]	stoichiometry N (molecules of each subunit (2:2)) [2]
Oc1ccc(O)cc1 [HQ, hydroquinone]	65.3 ± 10.5 µM	
PnpE1, large subunit of hydroquinone dioxygenase (HqD) of Burkholderia sp. strain SJ98 (natural protein)		2
